Experimental data as given in the supplement of paper PMC10307832.

Columns and labels:
Assay in all cases: relative viability (nuclei count vs DMSO), 5 days (fraction); higher = more cells survive
[1] = compound: CCN(CCO)CCCC(C)Nc1ccnc2cc(Cl)ccc12 [Hydroxychloroquine] + CS(=O)(=O)N1CCN(Cc2cc3nc(-c4cccc5[nH]ncc45)nc(N4CCOCC4)c3s2)CC1 [Pictilisib] (partner 1 µM)
Outline: (§1)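 A single step with final 0.05% Triton X-100, 1% formaldehyde and 1 ug/ml Hoechst fixed the cells and stained nuclei 5 days after treatment. Lung cancer cell lines in 1536-well plates had been treated by pin tool the day after seeding with one drug alone or a fixed anchor-drug dose plus five library-drug doses (not always all listed) in √10 steps, and nuclei were counted on 4× images. Relative viability is the ratio of nuclei in treated wells to nuclei in vehicle wells, taken as the median of duplicate plates.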

[2] = compound: CCN(CCO)CCCC(C)Nc1ccnc2cc(Cl)ccc12 [Hydroxychloroquine] + CCNC(=O)c1noc(-c2cc(C(C)C)c(O)cc2O)c1-c1ccc(CN2CCOCC2)cc1 [Luminespib] (partner 0.01 µM)
Outline: as §1

[3] = compound: CCN(CCO)CCCC(C)Nc1ccnc2cc(Cl)ccc12 [Hydroxychloroquine] + CC(=O)c1c(C)c2cnc(Nc3ccc(N4CCNCC4)cn3)nc2n(C2CCCC2)c1=O [Palbociclib] (partner 0.5 µM)
Outline: as §1

[4] = compound: CCN(CCO)CCCC(C)Nc1ccnc2cc(Cl)ccc12 [Hydroxychloroquine] + COc1cccc2cc(-c3nc([C@H]4CC[C@H](C(=O)O)CC4)n4ncnc(N)c34)[nH]c12 [OSI-027] (partner 0.5 µM)
Outline: as §1

Work on NCI-H2405 yielded a relative viability ([1]; first compound 0.5 µM) of 0.471, a relative viability ([1]; first compound 1.581 µM) of 0.346 and a relative viability ([1]; first compound 5 µM) of 0.416. For the same cell line, the relative viability ([1]; first compound 15.81 µM) was 0.466, the relative viability ([1]; first compound 50 µM) was 0.541 and the relative viability ([2]; first compound 0.5 µM) was 0.763. The relative viability ([2]; first compound 1.581 µM) was 0.613, the relative viability ([2]; first compound 5 µM) was 0.671 and the relative viability ([2]; first compound 15.81 µM) was 0.663. It also gave a relative viability ([2]; first compound 50 µM) of 0.579, a relative viability ([3]; first compound 0.5 µM) of 0.557 and a relative viability ([3]; first compound 1.581 µM) of 0.471. For the same cell line, the relative viability ([3]; first compound 5 µM) was 0.576, the relative viability ([3]; first compound 15.81 µM) was 0.516 and the relative viability ([3]; first compound 50 µM) was 0.516. For the same cell line, the relative viability ([4]; first compound 0.5 µM) was 0.626, the relative viability ([4]; first compound 1.581 µM) was 0.55 and the relative viability ([4]; first compound 5 µM) was 0.652. For the same cell line, the relative viability ([4]; first compound 15.81 µM) was 0.627 and the relative viability ([4]; first compound 50 µM) was 0.658.

For LXF-289, the relative viability ([1]; first compound 0.5 µM) was 0.765, the relative viability ([1]; first compound 1.581 µM) was 0.819 and the relative viability ([1]; first compound 5 µM) was 0.797. It also gave a relative viability ([1]; first compound 15.81 µM) of 0.736, a relative viability ([1]; first compound 50 µM) of 0.769 and a relative viability ([2]; first compound 0.5 µM) of 0.745. The relative viability ([2]; first compound 1.581 µM) was 0.824, the relative viability ([2]; first compound 5 µM) was 0.713 and the relative viability ([2]; first compound 15.81 µM) was 0.576. The relative viability ([2]; first compound 50 µM) was 0.721, the relative viability ([3]; first compound 0.5 µM) was 0.577 and the relative viability ([3]; first compound 1.581 µM) was 0.588. It also gave a relative viability ([3]; first compound 5 µM) of 0.656, a relative viability ([3]; first compound 15.81 µM) of 0.575 and a relative viability ([3]; first compound 50 µM) of 0.602. It also gave a relative viability ([4]; first compound 0.5 µM) of 0.78, a relative viability ([4]; first compound 1.581 µM) of 0.77 and a relative viability ([4]; first compound 5 µM) of 0.751. It also gave a relative viability ([4]; first compound 15.81 µM) of 0.781 and a relative viability ([4]; first compound 50 µM) of 0.792.

CAL-12T gave a relative viability ([1]; first compound 0.5 µM) of 0.793, a relative viability ([1]; first compound 5 µM) of 0.382 and a relative viability ([1]; first compound 15.81 µM) of 0.35. It also gave a relative viability ([1]; first compound 50 µM) of 0.598, a relative viability ([2]; first compound 0.5 µM) of 0.286 and a relative viability ([2]; first compound 1.581 µM) of 0.319. It also gave a relative viability ([2]; first compound 5 µM) of 0.363, a relative viability ([2]; first compound 15.81 µM) of 0.511 and a relative viability ([2]; first compound 50 µM) of 0.373. The relative viability ([3]; first compound 0.5 µM) was 0.56, the relative viability ([3]; first compound 1.581 µM) was 0.383 and the relative viability ([3]; first compound 5 µM) was 0.462. For the same cell line, the relative viability ([3]; first compound 15.81 µM) was 0.478, the relative viability ([3]; first compound 50 µM) was 0.595 and the relative viability ([4]; first compound 0.5 µM) was 0.97. The relative viability ([4]; first compound 1.581 µM) was 0.8, the relative viability ([4]; first compound 5 µM) was 0.633 and the relative viability ([4]; first compound 15.81 µM) was 0.684. It also gave a relative viability ([4]; first compound 50 µM) of 0.687.

In the case of COR-L23, the relative viability ([1]; first compound 0.5 µM) is reported as 0.585, the relative viability ([1]; first compound 1.581 µM) is reported as 0.84 and the relative viability ([1]; first compound 5 µM) is reported as 0.875. The relative viability ([1]; first compound 15.81 µM) was 0.899, the relative viability ([1]; first compound 50 µM) was 0.968 and the relative viability ([2]; first compound 0.5 µM) was 0.683. The relative viability ([2]; first compound 1.581 µM) was 0.662, the relative viability ([2]; first compound 5 µM) was 0.818 and the relative viability ([2]; first compound 15.81 µM) was 0.948. For the same cell line, the relative viability ([2]; first compound 50 µM) was 0.705, the relative viability ([3]; first compound 0.5 µM) was 0.215 and the relative viability ([3]; first compound 1.581 µM) was 0.232. For the same cell line, the relative viability ([3]; first compound 5 µM) was 0.309, the relative viability ([3]; first compound 15.81 µM) was 0.299 and the relative viability ([3]; first compound 50 µM) was 0.307. The relative viability ([4]; first compound 0.5 µM) was 0.756, the relative viability ([4]; first compound 1.581 µM) was 0.809 and the relative viability ([4]; first compound 5 µM) was 0.822. It also gave a relative viability ([4]; first compound 15.81 µM) of 0.91 and a relative viability ([4]; first compound 50 µM) of 0.85.

NCI-H1755 gave a relative viability ([1]; first compound 0.5 µM) of 0.431, a relative viability ([1]; first compound 1.581 µM) of 0.273 and a relative viability ([1]; first compound 5 µM) of 0.374. The relative viability ([1]; first compound 15.81 µM) was 0.425, the relative viability ([1]; first compound 50 µM) was 0.379 and the relative viability ([2]; first compound 0.5 µM) was 0.489. It also gave a relative viability ([2]; first compound 1.581 µM) of 0.403, a relative viability ([2]; first compound 5 µM) of 0.517 and a relative viability ([2]; first compound 15.81 µM) of 0.354. For the same cell line, the relative viability ([2]; first compound 50 µM) was 0.432, the relative viability ([3]; first compound 0.5 µM) was 0.459 and the relative viability ([3]; first compound 1.581 µM) was 0.398. It also gave a relative viability ([3]; first compound 5 µM) of 0.445, a relative viability ([3]; first compound 15.81 µM) of 0.443 and a relative viability ([3]; first compound 50 µM) of 0.475. For the same cell line, the relative viability ([4]; first compound 0.5 µM) was 0.797, the relative viability ([4]; first compound 1.581 µM) was 0.617 and the relative viability ([4]; first compound 5 µM) was 0.628. For the same cell line, the relative viability ([4]; first compound 15.81 µM) was 0.649 and the relative viability ([4]; first compound 50 µM) was 0.574.

In the case of NCI-H1437, the relative viability ([1]; first compound 0.5 µM) is reported as 0.341, the relative viability ([1]; first compound 1.581 µM) is reported as 0.49 and the relative viability ([1]; first compound 5 µM) is reported as 0.412. The relative viability ([1]; first compound 15.81 µM) was 0.421, the relative viability ([1]; first compound 50 µM) was 0.439 and the relative viability ([2]; first compound 0.5 µM) was 1.2. The relative viability ([2]; first compound 1.581 µM) was 1.1, the relative viability ([2]; first compound 5 µM) was 1.18 and the relative viability ([2]; first compound 15.81 µM) was 1.04. It also gave a relative viability ([2]; first compound 50 µM) of 1.24, a relative viability ([3]; first compound 0.5 µM) of 0.291 and a relative viability ([3]; first compound 1.581 µM) of 0.328. It also gave a relative viability ([3]; first compound 5 µM) of 0.328, a relative viability ([3]; first compound 15.81 µM) of 0.295 and a relative viability ([3]; first compound 50 µM) of 0.336. For the same cell line, the relative viability ([4]; first compound 0.5 µM) was 0.813, the relative viability ([4]; first compound 1.581 µM) was 1.02 and the relative viability ([4]; first compound 5 µM) was 0.859. It also gave a relative viability ([4]; first compound 15.81 µM) of 0.949 and a relative viability ([4]; first compound 50 µM) of 0.909.

For NCI-H2085, the relative viability ([1]; first compound 0.5 µM) was 0.434, the relative viability ([1]; first compound 1.581 µM) was 0.509 and the relative viability ([1]; first compound 5 µM) was 0.462. For the same cell line, the relative viability ([1]; first compound 15.81 µM) was 0.392, the relative viability ([1]; first compound 50 µM) was 0.472 and the relative viability ([2]; first compound 0.5 µM) was 0.612. For the same cell line, the relative viability ([2]; first compound 1.581 µM) was 0.44, the relative viability ([2]; first compound 5 µM) was 0.447 and the relative viability ([2]; first compound 15.81 µM) was 0.416. The relative viability ([2]; first compound 50 µM) was 0.413, the relative viability ([3]; first compound 0.5 µM) was 0.473 and the relative viability ([3]; first compound 1.581 µM) was 0.422. It also gave a relative viability ([3]; first compound 5 µM) of 0.48, a relative viability ([3]; first compound 15.81 µM) of 0.484 and a relative viability ([3]; first compound 50 µM) of 0.455. It also gave a relative viability ([4]; first compound 0.5 µM) of 0.788, a relative viability ([4]; first compound 1.581 µM) of 0.557 and a relative viability ([4]; first compound 5 µM) of 0.625. It also gave a relative viability ([4]; first compound 15.81 µM) of 0.693 and a relative viability ([4]; first compound 50 µM) of 0.821.

H3255 gave a relative viability ([1]; first compound 0.5 µM) of 0.513, a relative viability ([1]; first compound 1.581 µM) of 0.517 and a relative viability ([1]; first compound 5 µM) of 0.462. The relative viability ([1]; first compound 15.81 µM) was 0.474, the relative viability ([1]; first compound 50 µM) was 0.507 and the relative viability ([2]; first compound 0.5 µM) was 0.966. It also gave a relative viability ([2]; first compound 1.581 µM) of 0.874, a relative viability ([2]; first compound 5 µM) of 0.912 and a relative viability ([2]; first compound 15.81 µM) of 0.819. It also gave a relative viability ([2]; first compound 50 µM) of 0.742, a relative viability ([3]; first compound 0.5 µM) of 0.335 and a relative viability ([3]; first compound 1.581 µM) of 0.32. It also gave a relative viability ([3]; first compound 5 µM) of 0.303, a relative viability ([3]; first compound 15.81 µM) of 0.318 and a relative viability ([3]; first compound 50 µM) of 0.312. The relative viability ([4]; first compound 0.5 µM) was 0.653, the relative viability ([4]; first compound 1.581 µM) was 0.524 and the relative viability ([4]; first compound 5 µM) was 0.569. The relative viability ([4]; first compound 15.81 µM) was 0.6 and the relative viability ([4]; first compound 50 µM) was 0.665.
